Experimental data reported in PMC3156789 (Biochemistry, 2011).

Columns and labels:
[1] = system: CHK; assay: CHK phosphorylation of Flag-tagged β-synuclein in transfected HEK293T cells; format: cell-based; settings: HEK293T co-transfected with CHK; pervanadate-treated; Western blot
[2] = biological target: T1, CHK-His6 (Rattus norvegicus, UniProt P41243); assay: Kinetic analysis of phosphorylation of peptide substrates by CHK-His6; format: biochemical
T1 sequence (P41243 1-467): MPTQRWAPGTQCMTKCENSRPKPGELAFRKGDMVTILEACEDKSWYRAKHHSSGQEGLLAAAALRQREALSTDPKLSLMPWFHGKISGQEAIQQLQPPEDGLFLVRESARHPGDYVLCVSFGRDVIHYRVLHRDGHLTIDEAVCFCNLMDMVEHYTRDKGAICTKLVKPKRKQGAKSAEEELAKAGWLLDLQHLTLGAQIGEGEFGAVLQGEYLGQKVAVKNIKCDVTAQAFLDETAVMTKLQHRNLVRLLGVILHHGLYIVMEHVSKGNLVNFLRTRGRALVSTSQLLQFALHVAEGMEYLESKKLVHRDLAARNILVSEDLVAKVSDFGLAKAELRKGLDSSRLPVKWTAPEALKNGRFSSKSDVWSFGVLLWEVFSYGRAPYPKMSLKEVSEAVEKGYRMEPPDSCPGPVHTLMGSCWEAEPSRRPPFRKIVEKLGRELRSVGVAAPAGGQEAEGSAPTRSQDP

[3] = Circular dichroism analysis of secondary structure; format: physicochemical; settings: aqueous solution; SFig. 6
[4] = system: CHK; assay: CHK phosphorylation of peptides derived from α- and β-synucleins; format: biochemical; settings: 30 °C; for reduction in CHK phosphorylation rate: vs β-syn(112–134), Fig. 2B, P81 filter assay, [γ-^32P]ATP
[5] = system: transgenic mice; settings: mouse, in vivo; cited from earlier work
[6] = system: CHK; assay: Phosphorylation of α- and β-synucleins by CHK; format: biochemical; settings: for phosphate incorporated by CHK: reaction time 120 min, synuclein 0.56 μM, CHK 0.04 μM
[7] = system: CHK; format: biochemical; settings: higher than that of hsp90 (SFig. 4B)
[8] = CHK-His6 0.2 μM, substrate peptides 0–400 μM
[9] = CHK-His6 0.2 μM, substrate peptides 0–400 μM, Lineweaver-Burk plots
[10] = vs β-syn(112–134) and SFK-C-terminal peptide

Flag-[Y127F]β-synuclein: [Y127F]β-synuclein with the Flag tag attached at the N-terminus
effect of Y127F on CHK-induced phosphorylation in cells [1]: reduced the level of CHK-induced phosphorylation

KKDPEERPTFEYLQSFTATEPQYQPGENL [SFK C-terminal Peptide, reference compound]
kcat/KM [2, 8]: 5.1×10^−4 μM^−1S^−1
kcat [2, 9]: 0.13 ± 0.003 S^−1
secondary structure by CD [3]: random coil conformation

KKKK-MEPEGESYEDPPQEEYQEYEPEA [β-syn(112–134)]
CHK phosphorylation efficiency relative to α-syn peptide ([4]; higher than α-syn(117–140) peptide, CHK 0.11 μM, peptide 20 μM, time course (Fig. 3B)): ~ 10 fold
kcat/KM [2, 8]: 6.7×10^−4 μM^−1S^−1
kcat [2, 9]: 0.17 ± 0.01 S^−1
secondary structure by CD [3]: random coil conformation

KKK–GESFEAQDEGIYWNVGPEA [[D9A]CHK-optimal peptide]
kcat/KM [2, 8]: 111×10^−4 μM^−1S^−1
kcat [2, 9]: 1.27 ± 0.06 S^−1
effect of D9A substitution on KM ([2]; vs CHK-optimal peptide): small increase in KM
effect of D9A substitution on kcat ([2]; vs CHK-optimal peptide): slight reduction of kcat

KKK–GESFEDQDEGIYWNVGPEA [CHK-optimal peptide]
kcat/KM [2, 8]: 140×10^−4 μM^−1S^−1
kcat [2, 9]: 1.45 ± 0.05 S^−1
kcat ([2]; CHK-optimal peptide): 1.45 s⁻¹
kcat relative to β-syn(112–134) and SFK-C-terminal peptide [2, 10]: approximately ten-fold higher
phosphorylation efficiency in comparison [2, 10]: phosphorylated with an efficiency higher than those of β-syn(112–134) and SFK-C-terminal peptide

[P123H] β-synuclein: β-synuclein mutant, proline to histidine substitution at position 123
phenotype of transgenic mice overexpressing the mutant [5]: progressive neurodegeneration

[Y119F, Y130F]β-syn(112–134): contains Y127 as the only tyrosine
reduction in CHK phosphorylation rate [4]: 30%

[Y127F] β-syn(112–134): Y127 is replaced by phenylalanine
reduction in CHK phosphorylation rate [4]: 84%

α-synuclein
phosphate incorporated by CHK [6]: 0.024 pmol
CHK substrate quality in comparison ([6]; α-synuclein vs β-synuclein): much poorer substrate of CHK compared to β-synuclein

β-synuclein: recombinant β-synuclein (GST-β-synuclein in Fig. 5); potential CHK substrate in rat brain cytosol
rate of CHK phosphorylation relative to hsp90 [7]: ~ 23 fold
phosphate incorporated by CHK [6]: ~ 0.9 pmol
